target: T1, human p38 kinase alpha (Homo sapiens, UniProt Q16539); test: p38 kinase in vitro assay, phosphorylation of biotinylated PHAS-I with 32P-ATP; assay type: biochemical; details: @ 1.0 uM
T1 construct: GST (N, cleaved yes); made in house; host or cells: E. coli DH10B
T1 sequence (Q16539 whole entry): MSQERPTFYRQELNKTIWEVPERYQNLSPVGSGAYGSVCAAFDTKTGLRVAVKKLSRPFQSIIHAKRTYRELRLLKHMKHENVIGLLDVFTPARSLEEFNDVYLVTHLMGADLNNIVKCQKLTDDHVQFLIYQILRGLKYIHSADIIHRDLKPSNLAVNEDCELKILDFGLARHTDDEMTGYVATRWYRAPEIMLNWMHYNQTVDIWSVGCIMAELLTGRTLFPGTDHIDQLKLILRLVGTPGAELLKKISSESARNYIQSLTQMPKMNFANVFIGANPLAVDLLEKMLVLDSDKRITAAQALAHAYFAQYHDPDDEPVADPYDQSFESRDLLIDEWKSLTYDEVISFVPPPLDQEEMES

Row | Structure (SMILES) | P38 alpha kinase % inhib @ conc. [% @] | P38 alpha kinase % inhib @ conc. (uM) [% @]
1 | NC(=O)NCCCc1[nH]nc(-c2ccc(F)cc2)c1-c1ccncc1 [Example B-1207] | 90.0 | 
2 | O=C(NCCCc1[nH]nc(-c2ccc(F)cc2)c1-c1ccncc1)Nc1ccc(F)cc1 [Example B-1211] | 88.0 | 
3 | O=C(NCCCc1[nH]nc(-c2ccc(F)cc2)c1-c1ccncc1)N1CCCC1 [Example B-1209] | 86.0 | 
4 | CCCNC(=O)NCCc1[nH]nc(-c2ccc(F)cc2)c1-c1ccncc1 [Example B-1041] |  | 70.0
5 | O=C(NCCc1[nH]nc(-c2ccc(F)cc2)c1-c1ccncc1)Nc1cccc(F)c1 [Example B-1046] |  | 72.0
6 | CS(=O)(=O)NCCc1[nH]nc(-c2ccc(F)cc2)c1-c1ccncc1 [Example B-1024] |  | 89.0
7 | CC(=O)NCCc1[nH]nc(-c2ccc(F)cc2)c1-c1ccncc1 [Example B-0987] |  | 78.0
8 | O=C(NCCCc1[nH]nc(-c2ccc(F)cc2)c1-c1ccncc1)N1CCOCC1 [Example B-1210] | 82.0 | 
9 | CC(C)C(=O)NCCc1[nH]nc(-c2ccc(F)cc2)c1-c1ccncc1 [Example B-0983] |  | 75.0
10 | O=C(NCCc1[nH]nc(-c2ccc(F)cc2)c1-c1ccncc1)Nc1ccc(F)cc1 [Example B-1034] |  | 66.0
11 | CS(=O)(=O)NCCCc1[nH]nc(-c2ccc(F)cc2)c1-c1ccncc1 [Example B-1201] | 84.0 | 

same assay, conditions: @ 1.0 uM; read-out: P38 alpha kinase % inhib @ conc.

Row | Structure (SMILES) | inhibition at 1 µM [%]
12 | COCC(=O)NCc1[nH]nc(-c2ccc(F)cc2)c1-c1ccncc1 [Example B-0003] | 70
13 | O=C(NCc1[nH]nc(-c2ccc(F)cc2)c1-c1ccncc1)c1ccc(Br)cc1 [Example B-0007] | 74

same assay, conditions: @ 10.0 uM

Row | Structure (SMILES) | P38 alpha kinase % inhib @ conc. [% @] | P38 alpha kinase IC50, uM or % inhib @ conc. (uM): % inhib [% @] | P38 alpha kinase % inhib @ conc. (uM) [% @]
14 | CCCN(CCC)CC(C)NC(=O)Cn1nc(-c2ccc(F)cc2)c(-c2ccncc2)c1C (centres unmarked) [Example B-2358] | 17.0 |  | 
15 | COC(=O)C(Cc1cn(C)cn1)NC(=O)Cn1nc(-c2ccc(F)cc2)c(-c2ccncc2)c1C (centres unmarked) [Example B-2361] | 19.0 |  | 
16 | Cc1c(-c2ccncc2)c(-c2ccc(F)cc2)nn1CC(=O)Nc1ccccc1Oc1ccc(Cl)cc1 [Example B-2449] |  | 86.0 | 
17 | Cc1c(-c2ccncc2)c(-c2ccc(F)cc2)nn1CC(=O)NC1CCC(C(C)(C)C)CC1 (centres unmarked) [Example B-2350] | 38.0 |  | 
18 | Cc1c(-c2ccncc2)c(-c2ccc(F)cc2)nn1CC(=O)Nc1cccc(SC(F)(F)F)c1 [Example B-2459] |  | 82.0 | 
19 | Cc1c(-c2ccncc2)c(-c2ccc(F)cc2)nn1CC(=O)N1CCSC1 [Example B-2383] | 63.0 |  | 
20 | COC(=O)[C@H](COCc1ccccc1)NC(=O)Cn1nc(-c2ccc(F)cc2)c(-c2ccncc2)c1C [Example B-2359] | 76.0 |  | 
21 | COCCN(CC1CCCCC1)C(=O)Cn1nc(-c2ccc(F)cc2)c(-c2ccncc2)c1C [Example B-2392] |  | 63.0 | 
22 | Cc1c(-c2ccncc2)c(-c2ccc(F)cc2)nn1CC(=O)NC1CCCCC1C1CCCCC1 (centres unmarked) [Example B-2346] | 45.0 |  | 
23 | COc1cc(NC(=O)NCCc2[nH]nc(-c3ccc(F)cc3)c2-c2ccncc2)cc(OC)c1OC [Example B-0979] |  |  | 56.0

same assay, conditions: in vitro P38-alpha kinase inhibition; read-out: P38 alpha kinase IC50

Row | Structure (SMILES) | IC50 [nM]
24 | Cc1noc(C)c1C(=O)NC(C)c1[nH]nc(-c2ccc(F)cc2)c1-c1ccncc1 (centres unmarked) [Example B-0706] | 440
25 | O=S(=O)(Cc1ccccc1)NC(Cc1ccccc1)c1[nH]nc(-c2ccc(F)cc2)c1-c1ccncc1 (centres unmarked) [Example B-0756] | 940
26 | CC(NS(=O)(=O)c1cccs1)c1[nH]nc(-c2ccc(F)cc2)c1-c1ccncc1 (centres unmarked) [Example B-0575] | 32
27 | CN(C)C(=O)NC(Cc1ccccc1)c1[nH]nc(-c2ccc(F)cc2)c1-c1ccncc1 (centres unmarked) [Example B-0774] | 1500
28 | CC(NS(=O)(=O)c1ccccc1Cl)c1[nH]nc(-c2ccc(F)cc2)c1-c1ccncc1 (centres unmarked) [Example B-0640] | 360
29 | CC(NS(=O)(=O)c1cccc2c(N(C)C)cccc12)c1[nH]nc(-c2ccc(F)cc2)c1-c1ccncc1 (centres unmarked) [Example B-0621] | 360
30 | O=C(NCCc1[nH]nc(-c2ccc(F)cc2)c1-c1ccncc1)c1cccs1 [Example B-1156] | 270
31 | CNC(=O)CCC(NC(=O)NC)c1[nH]nc(-c2ccc(F)cc2)c1-c1ccncc1 (centres unmarked) [Example B-0880] | 150
32 | COc1ccc(NC(=O)NC(Cc2ccccc2)c2[nH]nc(-c3ccc(F)cc3)c2-c2ccncc2)cc1 (centres unmarked) [Example B-0786] | 24000
33 | O=C(NCCc1[nH]nc(-c2ccc(F)cc2)c1-c1ccncc1)c1c(F)cc(F)cc1F [Example B-1135] | 230
34 | CNC(=O)CCC(NS(C)(=O)=O)c1[nH]nc(-c2ccc(F)cc2)c1-c1ccncc1 (centres unmarked) [Example B-0878] | 650
35 | CC(NC(=O)c1cccc(Cl)c1Cl)c1[nH]nc(-c2ccc(F)cc2)c1-c1ccncc1 (centres unmarked) [Example B-0681] | 1960
36 | O=C(Nc1ccc(F)cc1)NC(Cc1ccccc1)c1[nH]nc(-c2ccc(F)cc2)c1-c1ccncc1 (centres unmarked) [Example B-0728] | 20000
37 | CC(NC(=O)NC(Cc1ccccc1)c1[nH]nc(-c2ccc(F)cc2)c1-c1ccncc1)c1ccccc1 (centres unmarked) [Example B-0781] | 48000
38 | O=C(NCCc1[nH]nc(-c2ccc(F)cc2)c1-c1ccncc1)c1cc(F)ccc1F [Example B-1148] | 430
39 | CC(NS(=O)(=O)c1ccc(S(=O)(=O)c2ccccc2)s1)c1[nH]nc(-c2ccc(F)cc2)c1-c1ccncc1 (centres unmarked) [Example B-0665] | 470
40 | CCCCS(=O)(=O)NC(C)c1[nH]nc(-c2ccc(F)cc2)c1-c1ccncc1 (centres unmarked) [Example B-0571] | 380
41 | O=C(NC(Cc1ccccc1)c1[nH]nc(-c2ccc(F)cc2)c1-c1ccncc1)c1ccccc1 (centres unmarked) [Example B-0851] | 910
42 | O=C(NCCc1[nH]nc(-c2ccc(F)cc2)c1-c1ccncc1)c1ccc(C(F)(F)F)cc1F [Example B-1136] | 1170
43 | COc1ccc(S(=O)(=O)NC(C)c2[nH]nc(-c3ccc(F)cc3)c2-c2ccncc2)cc1OC (centres unmarked) [Example B-0577] | 91
44 | CCOC(=O)NC(C)c1[nH]nc(-c2ccc(F)cc2)c1-c1ccncc1 (centres unmarked) [Example B-0603] | 90
45 | Cc1cccc(S(=O)(=O)NCCc2[nH]nc(-c3ccc(F)cc3)c2-c2ccncc2)c1 [Example B-1089] | < 100
46 | O=C(NC(Cc1ccccc1)c1[nH]nc(-c2ccc(F)cc2)c1-c1ccncc1)C1CCC1 (centres unmarked) [Example B-0804] | 300
47 | O=S(=O)(NCCc1[nH]nc(-c2ccc(F)cc2)c1-c1ccncc1)c1cc(Cl)cc(Cl)c1 [Example B-1092] | 270
48 | O=C(NC(Cc1ccccc1)c1[nH]nc(-c2ccc(F)cc2)c1-c1ccncc1)c1cccnc1 (centres unmarked) [Example B-0821] | 1440
49 | C[C@@H](NS(=O)(=O)c1cccc(Cl)c1)c1[nH]nc(-c2ccc(F)cc2)c1-c1ccncc1 [Example B-0462] | < 100
50 | CC(NS(=O)(=O)c1cc(S(=O)(=O)c2ccccc2)cs1)c1[nH]nc(-c2ccc(F)cc2)c1-c1ccncc1 (centres unmarked) [Example B-0661] | < 100

same assay, conditions: in vitro P38-alpha kinase; read-out: P38 alpha kinase IC50

Row | IC50 [nM] | Structure (SMILES)
51 | 7 | O=C(NCCCc1[nH]nc(-c2ccc(F)cc2)c1-c1ccncc1)c1c(F)ccc(F)c1F [Example B-1332]
52 | 14 | CC(C)(C)C(=O)N1CCC(c2[nH]nc(-c3ccc(F)cc3)c2-c2ccncc2)CC1 [Example B-1421]
53 | 400 | N#Cc1ccccc1S(=O)(=O)N1CCC(c2[nH]nc(-c3ccc(F)cc3)c2-c2ccncc2)CC1 [Example B-1461]
54 | 4 | O=C(NCCCc1[nH]nc(-c2ccc(F)cc2)c1-c1ccncc1)c1cc(F)cc(F)c1 [Example B-1331]
55 | 2560 | Cc1c(-c2ccncc2)c(-c2ccc(F)cc2)nn1CC(=O)NCCCCCCN(C)C [Example B-2287]
56 | < 100 | C#CCOC(=O)N1CCC(c2[nH]nc(-c3ccc(F)cc3)c2-c2ccncc2)CC1 [Example B-1427]
57 | 360 | CCCS(=O)(=O)N1CCC(c2[nH]nc(-c3ccc(F)cc3)c2-c2ccncc2)CC1 [Example B-1431]
58 | 3170 | O=C(c1cccc(F)c1)N1CCC(c2[nH]nc(-c3ccc(F)cc3)c2-c2ccncc2)CC1 [Example B-1393]
59 | 180 | COC(=O)CCNC(=O)Cn1nc(-c2ccc(F)cc2)c(-c2ccncc2)c1C [Example B-2301]
60 | 1610 | O=S(=O)(c1ccc(Cl)cc1Cl)N1CCC(c2[nH]nc(-c3ccc(F)cc3)c2-c2ccncc2)CC1 [Example B-1449]
61 | < 100 | O=C(c1ccc(F)cc1C(F)(F)F)N1CCC(c2[nH]nc(-c3ccc(F)cc3)c2-c2ccncc2)CC1 [Example B-1410]
62 | 750 | CCCCS(=O)(=O)N1CCC(c2[nH]nc(-c3ccc(F)cc3)c2-c2ccncc2)CC1 [Example B-1430]
63 | 1000 | Cc1c(-c2ccncc2)c(-c2ccc(F)cc2)nn1CC(=O)NCCc1ccc([N+](=O)[O-])cc1 [Example B-2302]
64 | 930 | O=S(=O)(c1ccc(Br)cc1)N1CCC(c2[nH]nc(-c3ccc(F)cc3)c2-c2ccncc2)CC1 [Example B-1472]
65 | 1010 | O=C(c1ccc(Cl)c(Cl)c1)N1CCC(c2[nH]nc(-c3ccc(F)cc3)c2-c2ccncc2)CC1 [Example B-1418]

Further lines, the compound ahead of its results:

Row | Structure (SMILES) | IC50 [nM]
66 | Cc1cccc(S(=O)(=O)NCCCc2[nH]nc(-c3ccc(F)cc3)c2-c2ccncc2)c1 [Example B-1266] | < 100
67 | Cc1cccc(Cl)c1S(=O)(=O)NCCCc1[nH]nc(-c2ccc(F)cc2)c1-c1ccncc1 [Example B-1272] | 14
68 | O=S(=O)(NCCCc1[nH]nc(-c2ccc(F)cc2)c1-c1ccncc1)c1ccc(F)cc1Cl [Example B-1254] | 160
69 | C[C@@H](NS(=O)(=O)/C=C/c1ccccc1)c1[nH]nc(-c2ccc(F)cc2)c1-c1ccncc1 [Example B-0388] | < 100
70 | Cc1c(Cl)cccc1S(=O)(=O)NCCCc1[nH]nc(-c2ccc(F)cc2)c1-c1ccncc1 [Example B-1252] | 170
71 | O=C(NCCCc1[nH]nc(-c2ccc(F)cc2)c1-c1ccncc1)NC1CCN(Cc2ccccc2)CC1 [Example B-1320] | 47
